Data set [1] can be described thus: Safety evaluations, interaction study with EFV. The format is in vivo, human. To be noted: healthy subjects n=12. As for the experimental part:
(§1) In both studies, safety evaluations [adverse event (AE) reporting, clinical chemistry laboratory tests, urinalysis, vital signs and electrocardiogram] were performed throughout the study. Given the known hepatotoxicity profile of TPV/r, more frequent monitoring of liver chemistries was performed in the TPV/r study, and conservative stopping criteria were employed such that any subject reaching a grade 2 increase in alanine aminotransferase (ALT) or aspartate aminotransferase (AST) was discontinued from the trial. Both trials were conducted as inpatient studies with subjects housed in the unit for the duration of the study. The studies were conducted in accordance with the principles of the Declaration of Helsinki. A written informed consent was obtained from all subjects, and both protocols were approved by the institutional review board of the study sites.

Data set [2] is described as follows: Safety evaluations, interaction study with TPV/r. The format is in vivo, human. To be noted: healthy subjects n=18. On the procedure:
as §1

Data set [3] deals with UGT1A1. The arrangement: method as in PMID 23132334. As to conditions: in vitro; cited from earlier work.
Data set [4] relates to UGT2B7. Further details: method as in PMID 23132334. As to conditions: in vitro; cited from earlier work.
In data set [5] the test system is OATP1B3. The arrangement: method as in PMID 23132334. As to conditions: in vitro; cited from earlier work.
Data set [6] relates to MRP2. The arrangement: method as in PMID 23132334. To be noted: in vitro; cited from earlier work.
Data set [7] deals with CYP2B6. Further details: method as in PMID 23132334. As to conditions: in vitro; cited from earlier work.
Details of data set [8]: method as in PMID 19884365. As to conditions: healthy subjects; cited from earlier work.
Details of data set [9]: method as in earlier work. As to conditions: SAILING, DTG 50 mg once daily with EFV- or TPV/r-containing background regimens, n=16; cited from earlier work.
In data set [10] the test system is HIV. Further details: method as in earlier work. To be noted: SAILING, cited from earlier work.
Details of data set [11]: method as in PMID 23075918. As to conditions: DTG 50 mg twice daily with rifampin; cited from earlier work.

Like-named read-outs stand apart in the source and are kept apart here.

For the compound `C[C@@H]1CCO[C@H]2Cn3cc(C(=O)NCc4ccc(F)cc4F)c(=O)c(O)c3C(=O)N12` [DTG, Dolutegravir], the “subjects reporting at least one AE” value in data set [1] was 17%. In data set [1] (repeat doses), the tolerability entry is recorded as “generally well tolerated”. Further, the subjects reporting headache in data set [2] was determined as 11%. Moreover, in data set [3], the “direct inhibition of UGT1A1” value is “minimal or no direct inhibition”. For the same compound, the “direct inhibition of UGT2B7” value in data set [4] is on record as “minimal or no direct inhibition”. In addition, in [5], the “direct inhibition of OATP1B3” value was “minimal or no direct inhibition”. The “direct inhibition of MRP2” value in data set [6] was “minimal or no direct inhibition”. Moreover, the “induction of CYP2B6” value in data set [7] is “not an inducer”. Moreover, the “effect on midazolam exposure” value in [8] is on record as “no significant effect”. The “lower average DTG pre-dose (C 0) concentration” value in data set [9] is given as 78%. Also, the “pre-dose (C 0) concentration, geometric mean” value in data set [9] is 186 ng/mL. Also, the “week 48 Snapshot response rate” value is recorded as 56.3% in [10] (DTG 50 mg once daily with EFV- or TPV/r-containing background regimens, n=16); 74.4% in [10] (subjects not on these inducers or inhibitors (atazanavir and atazanavir/ritonavir)). Besides, the “C τ higher than with DTG 50 mg once daily alone” value in data set [11] is 22%.

The values are drawn from article PMC4158172 (European Journal of Clinical Pharmacology, 2014).
